Experiments:
HepG2 cells = test: HepG2 cytotoxicity assay; settings: HepG2 cytotoxicity unified across screens; >25 set to 25.00
How it was run: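 Percent inhibition derived from fluorescent viability readout, normalised to DMSO (negative) and 50 μM doxorubicin (positive). Compound incubation lasted 48 h at 37°C, 5% CO2, with 2,500 HepG2 cells/well in MEM plus 10% FBS and 1% NEAA.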

[1] = test system: P. falciparum late stage (stages IV-V) gametocytes; test: P. falciparum late stage gametocyte ATP depletion assay (Pf GC-ATP); settings: 1: YES; 0: NO; >10-fold selectivity over cytotoxicity
[2] = test system: P. falciparum late stage (stages IV-V) gametocytes; set-up: method as in Almela et al 2016; settings: P. falciparum late stage gametocyte ATP assay, TCAMS screen; ref Almela et al 2016; read-out: Pf GCT ATP IC50; cited from earlier work

NCc1ccc(CNCc2cccc(-c3ccc(-c4nc5ccccc5[nH]4)cc3)c2)cc1.O=C(O)C(F)(F)F [TCMDC-132815]
Unified cytotox (HepG2 cells): 21.82 µM
Is compound selective in assay? Pf GC-ATP active? [1]: 1 (1: YES)
IC50 [2]: 480 nM

O=C(O)C(F)(F)F.c1cc(CNCCN2CCNCC2)cc(-c2cccc(-c3nc4ccccc4[nH]3)c2)c1 [TCMDC-132859]
Unified cytotox (HepG2 cells): 19.30 µM
Is compound selective in assay? Pf GC-ATP active? [1]: 1 (1: YES)
IC50 [2]: 710 nM

Fc1ccc2[nH]c(-c3cccc(-c4cccc(CNCCN5CCNCC5)c4)c3)nc2c1.O=C(O)C(F)(F)F [TCMDC-132860]
Unified cytotox (HepG2 cells): 19.63 µM
Is compound selective in assay? Pf GC-ATP active? [1]: 1 (1: YES)
IC50 [2]: 740 nM

Fc1ccc2[nH]c(-c3cccc(-c4ccc(CNCCN5CCNCC5)cc4)c3)nc2c1.O=C(O)C(F)(F)F [TCMDC-132863]
Unified cytotox (HepG2 cells): 24.16 µM
Is compound selective in assay? Pf GC-ATP active? [1]: 1 (1: YES)
IC50 [2]: 1450 nM

Cc1cccc2nc(-c3ccc(-c4cccc(CNCCN5CCNCC5)c4)cc3)[nH]c12 [TCMDC-132867]
Unified cytotox (HepG2 cells): 13.40 µM
Is compound selective in assay? Pf GC-ATP active? [1]: 1 (1: YES)
IC50 [2]: 840 nM

Cc1cccc2nc(-c3cccc(-c4cccc(CNCCN5CCNCC5)c4)c3)[nH]c12.O=C(O)C(F)(F)F [TCMDC-132873]
Unified cytotox (HepG2 cells): 7.76 µM
Is compound selective in assay? Pf GC-ATP active? [1]: 1 (1: YES)
IC50 [2]: 500 nM

CN1CCN(c2nsc3ccc(-c4ccc(NC(=O)Nc5cc(C(F)(F)F)ccc5F)cc4)cc23)CC1.O=C(O)C(F)(F)F [TCMDC-133435]
Unified cytotox (HepG2 cells): 6.40 µM
Is compound selective in assay? Pf GC-ATP active? [1]: 0 (0: NO)
IC50 [2]: 7520 nM

O=C(Nc1ccc(Cl)c(Cl)c1)Nc1ccccc1N1CCNCC1.O=C(O)C(F)(F)F [TCMDC-133727]
Unified cytotox (HepG2 cells): 11.20 µM
Is compound selective in assay? Pf GC-ATP active? [1]: 0 (0: NO)
IC50 [2]: 7420 nM

NC1CCN(Cc2ccc(-c3ccc(-c4nc5cc(F)ccc5[nH]4)cc3)cc2)C1.O=C(O)C(F)(F)F (stereo not drawn) [TCMDC-133872]
Unified cytotox (HepG2 cells): 7.25 µM
Is compound selective in assay? Pf GC-ATP active? [1]: 0 (0: NO)
IC50 [2]: 830 nM

O=C(O)C(F)(F)F.c1cc(CN2CCC(CCN3CCCCC3)CC2)cc(-c2cccc(-c3nc4ccccc4[nH]3)c2)c1 [TCMDC-133920]
Unified cytotox (HepG2 cells): 13.10 µM
Is compound selective in assay? Pf GC-ATP active? [1]: 1 (1: YES)
IC50 [2]: 290 nM

Cc1cccc2nc(-c3ccc(-c4cccc(CN5CCC(CCN6CCCCC6)CC5)c4)s3)[nH]c12.O=C(O)C(F)(F)F [TCMDC-133923]
Unified cytotox (HepG2 cells): 3.87 µM
Is compound selective in assay? Pf GC-ATP active? [1]: 0 (0: NO)
IC50 [2]: 460 nM

Cc1cccc2nc(-c3ccc(-c4ccc(CN5CCC(CCN6CCCCC6)CC5)cc4)cc3)[nH]c12.O=C(O)C(F)(F)F [TCMDC-133929]
Unified cytotox (HepG2 cells): 3.70 µM
Is compound selective in assay? Pf GC-ATP active? [1]: 1 (1: YES)
IC50 [2]: 270 nM

Fc1ccc2[nH]c(-c3ccc(-c4ccc(CN5CCC(CCN6CCCCC6)CC5)cc4)s3)nc2c1.O=C(O)C(F)(F)F [TCMDC-133932]
Unified cytotox (HepG2 cells): 3.79 µM
Is compound selective in assay? Pf GC-ATP active? [1]: 1 (1: YES)
IC50 [2]: 140 nM

COc1ccc(-c2cnn3ccc(Nc4cc(OC)c(OC)c(OC)c4)nc23)cc1OC [TCMDC-134383]
Unified cytotox (HepG2 cells): 12.90 µM
Is compound selective in assay? Pf GC-ATP active? [1]: 0 (0: NO)
IC50 [2]: 1620 nM

CCc1ccc(CN2CCC(CNC(=O)c3cc(-c4cccc(F)c4)cs3)C2)cc1.O=C(O)C(F)(F)F (stereo not drawn) [TCMDC-134432]
Unified cytotox (HepG2 cells): 7.22 µM
Is compound selective in assay? Pf GC-ATP active? [1]: 0 (0: NO)
IC50 [2]: 1260 nM

COc1ccccc1CCNc1nc(C)cc(N[C@@H](Cc2ccccc2)C(=O)NCc2cccc(F)c2)n1.O=C(O)C(F)(F)F [TCMDC-134893]
Unified cytotox (HepG2 cells): 6.30 µM
Is compound selective in assay? Pf GC-ATP active? [1]: 0 (0: NO)
IC50 [2]: 5300 nM

CC(C)(C)OC(=O)NCc1ccc(Nc2nnc(-c3ccc(OCC(=O)NCc4ccc(C(C)(C)C)cc4)c([N+](=O)[O-])c3)o2)cc1 [TCMDC-134991]
Unified cytotox (HepG2 cells): 3.15 µM
Is compound selective in assay? Pf GC-ATP active? [1]: 0 (0: NO)
IC50 [2]: 700 nM

— publication PMC6753678, “Fueling Open Innovation for Malaria Transmission-Blocking Drugs: Hundreds of Molecules Targeting Early Parasite Mosquito Stages” (Frontiers in Microbiology, 2019)
